Reference: patent US9102931B1, “Yeast strains and method for lignocellulose to ethanol production” (priority 2012, dated 2015)

Columns and labels:
[1] = test system: native xylose uptake of S. cerevisiae Y-50049-YXI (control host strain, YXI xylose isomerase SEQ ID NO: 63, no added xylose transporter gene); assay: Aerobic xylose uptake kinetics (Lineweaver-Burk), host strain Y-50049-YXI (control); type: cell-based; details: whole cells, 30° C.
From the text: The relative performance of yeast strains Y-50746, Y-50747, Y-50748, Y-50749, Y-50465, and Y-50466 containing a xylose isomerase gene and a xylose xylose transporter gene was further assessed in cell populations that were first grown aerobically on xylose and then transferred into fresh culture medium at high cell density. Under these conditions a high metabolic carbon demand creates the potential for transport to be a limiting factor and amplifies volumetric xylose consumption from the medium. Aerobic xylose uptake rate was assessed for the host strain Y-50049−YXI and each of its six xylose transporter-expressing derivatives. […] Once xylose was added to cultures, the reaction timing began, and the first sample was immediately taken, diluted for optical density reading, and centrifuged (10,000 rpm, 6 min). […] Subsequent samples were collected at 2 h, 4 h, 6 h, and the specific xylose consumption rate (V) was calculated as the rate of decline in xylose concentration (X)/per dry cell concentration (b), assuming the linear correlation of dry yeast biomass concentration with absorbance, b=(0.167 g/L). […] The relative statistical differences between strain performances due to the specific transporter gene expressed were determined by running a two-way analysis of variance of V as a function of the transporter gene and the initial xylose concentration. […]

[2] = biological target: T1, S. stipitis xylose transporter RGT2, SEQ ID NO: 64, in S. cerevisiae Y-50049-YXI-RGT2 (NRRL Y-50465) (Scheffersomyces stipitis, UniProt J9PF54); assay: Aerobic xylose uptake kinetics (Lineweaver-Burk), Y-50049-YXI-RGT2; type: cell-based; details: whole cells, 30° C.
T1 construct: whole-cell xylose uptake; S. stipitis CUG codons are read as Leu in this host
T1 sequence (J9PF54 1-528): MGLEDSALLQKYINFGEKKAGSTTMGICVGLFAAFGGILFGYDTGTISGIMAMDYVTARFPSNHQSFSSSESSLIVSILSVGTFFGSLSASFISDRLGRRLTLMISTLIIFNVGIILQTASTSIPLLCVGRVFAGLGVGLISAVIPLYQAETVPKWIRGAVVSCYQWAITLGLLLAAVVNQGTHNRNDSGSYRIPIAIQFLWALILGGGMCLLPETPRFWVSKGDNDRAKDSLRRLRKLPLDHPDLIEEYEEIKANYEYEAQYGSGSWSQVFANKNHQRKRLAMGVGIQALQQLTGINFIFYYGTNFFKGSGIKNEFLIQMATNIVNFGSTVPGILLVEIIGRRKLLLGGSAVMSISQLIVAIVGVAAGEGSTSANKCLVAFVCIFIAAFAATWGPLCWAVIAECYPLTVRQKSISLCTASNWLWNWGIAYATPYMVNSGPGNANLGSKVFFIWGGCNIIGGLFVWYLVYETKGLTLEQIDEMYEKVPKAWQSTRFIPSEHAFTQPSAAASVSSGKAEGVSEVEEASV
From the text: (§1) A portion of promoter and terminator for PGK1 was amplified from S. cerevisiae NRRL Y-50049 genomic DNA using primers PGK_PL/PGK_PR and PGK_TL/PGK_TR, as detailed in the Description of Sequences above. Amplified PGK1 fragments were cloned into vector pRS42H resulting in pRS42H -PGK1 promoter-terminator. Six putative xylose transporter genes XUT4, XUT5, XUT6, XUT7, RGT2, and SUT4 were amplified using various primers from the genomic DNA of S. stipitis. Each xylose transporter gene was cloned into the S. cerevisiae expression vector pRS42H-PGK1 promoter-terminator with proper restriction endonuclease sites designed. All DNA oligos were synthesized by IDT (Coralville, Iowa). […]
(§2) The relative performance of yeast strains Y-50746, Y-50747, Y-50748, Y-50749, Y-50465, and Y-50466 containing a xylose isomerase gene and a xylose xylose transporter gene was further assessed in cell populations that were first grown aerobically on xylose and then transferred into fresh culture medium at high cell density. […] Aerobic xylose uptake rate was assessed for the host strain Y-50049−YXI and each of its six xylose transporter-expressing derivatives. […] Once xylose was added to cultures, the reaction timing began, and the first sample was immediately taken, diluted for optical density reading, and centrifuged (10,000 rpm, 6 min). […]

[3] = biological target: T2, S. stipitis xylose transporter SUT4, SEQ ID NO: 69, in S. cerevisiae Y-50049-YXI-SUT4 (NRRL Y-50748) (Scheffersomyces stipitis, UniProt J9Q8Z9); assay: Aerobic xylose uptake kinetics (Lineweaver-Burk), Y-50049-YXI-SUT4; type: cell-based; details: whole cells, 30° C.
T2 construct: whole-cell xylose uptake; S. stipitis CUG codons are read as Leu in this host
T2 sequence (J9Q8Z9 1-549): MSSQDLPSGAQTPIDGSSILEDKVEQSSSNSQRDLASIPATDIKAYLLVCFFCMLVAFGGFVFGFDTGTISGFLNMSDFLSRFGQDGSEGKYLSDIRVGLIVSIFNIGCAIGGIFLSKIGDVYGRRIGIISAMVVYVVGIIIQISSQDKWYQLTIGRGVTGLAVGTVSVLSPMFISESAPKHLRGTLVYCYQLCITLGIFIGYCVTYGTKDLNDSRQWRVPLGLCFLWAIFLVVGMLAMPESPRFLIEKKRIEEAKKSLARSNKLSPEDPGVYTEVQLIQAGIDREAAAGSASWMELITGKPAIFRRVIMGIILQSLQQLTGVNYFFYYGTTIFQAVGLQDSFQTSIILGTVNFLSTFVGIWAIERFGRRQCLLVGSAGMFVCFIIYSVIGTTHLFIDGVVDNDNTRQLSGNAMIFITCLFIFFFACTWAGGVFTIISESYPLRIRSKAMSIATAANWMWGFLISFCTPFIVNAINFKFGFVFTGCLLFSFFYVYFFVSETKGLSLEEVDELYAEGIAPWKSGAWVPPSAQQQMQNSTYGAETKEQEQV
From the text: as §1, §2

[4] = biological target: T3, S. stipitis xylose transporter XUT4, SEQ ID NO: 68, in S. cerevisiae Y-50049-YXI-XUT4 (NRRL Y-50747) (Scheffersomyces stipitis, UniProt J9PED0); assay: Aerobic xylose uptake kinetics (Lineweaver-Burk), Y-50049-YXI-XUT4; type: cell-based; details: whole cells, 30° C.
T3 construct: whole-cell xylose uptake; S. stipitis CUG codons are read as Leu in this host
T3 sequence (J9PED0 entry or part of it): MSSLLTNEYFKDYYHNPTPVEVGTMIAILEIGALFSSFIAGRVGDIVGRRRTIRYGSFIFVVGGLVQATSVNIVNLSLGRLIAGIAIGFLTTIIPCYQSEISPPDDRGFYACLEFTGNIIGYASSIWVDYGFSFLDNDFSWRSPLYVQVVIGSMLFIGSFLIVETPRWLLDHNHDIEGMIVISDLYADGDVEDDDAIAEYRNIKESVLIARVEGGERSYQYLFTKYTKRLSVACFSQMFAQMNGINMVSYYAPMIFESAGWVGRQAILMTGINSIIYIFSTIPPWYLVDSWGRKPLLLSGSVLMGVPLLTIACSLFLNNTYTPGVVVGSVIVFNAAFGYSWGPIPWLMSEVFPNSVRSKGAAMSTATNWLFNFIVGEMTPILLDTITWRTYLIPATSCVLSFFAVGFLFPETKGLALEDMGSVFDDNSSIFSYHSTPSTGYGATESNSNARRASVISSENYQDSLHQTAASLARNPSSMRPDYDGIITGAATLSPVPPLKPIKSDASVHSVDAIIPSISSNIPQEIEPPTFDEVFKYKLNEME
From the text: as §1, §2

[5] = biological target: T4, S. stipitis xylose transporter XUT5, SEQ ID NO: 66, in S. cerevisiae Y-50049-YXI-XUT5 (NRRL Y-50746) (Scheffersomyces stipitis, UniProt A3LY79); assay: Aerobic xylose uptake kinetics (Lineweaver-Burk), Y-50049-YXI-XUT5; type: cell-based; details: whole cells, 30° C.
T4 construct: whole-cell xylose uptake; S. stipitis CUG codons are read as Leu in this host
T4 sequence (A3LY79 entry or part of it): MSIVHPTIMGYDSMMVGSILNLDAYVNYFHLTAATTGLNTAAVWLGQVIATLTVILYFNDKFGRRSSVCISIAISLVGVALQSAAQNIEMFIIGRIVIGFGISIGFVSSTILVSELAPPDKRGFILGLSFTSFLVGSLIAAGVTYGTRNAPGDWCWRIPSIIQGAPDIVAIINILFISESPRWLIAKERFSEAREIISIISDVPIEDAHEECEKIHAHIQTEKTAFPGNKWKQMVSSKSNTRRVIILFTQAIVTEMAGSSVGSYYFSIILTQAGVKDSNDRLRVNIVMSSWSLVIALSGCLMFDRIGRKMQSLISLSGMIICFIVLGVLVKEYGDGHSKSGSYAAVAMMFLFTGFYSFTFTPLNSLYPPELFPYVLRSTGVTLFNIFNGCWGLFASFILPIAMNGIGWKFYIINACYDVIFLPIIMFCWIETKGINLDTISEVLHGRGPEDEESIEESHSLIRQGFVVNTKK
From the text: as §1, §2

[6] = biological target: T5, S. stipitis xylose transporter XUT6, SEQ ID NO: 67, in S. cerevisiae Y-50049-YXI-XUT6 (NRRL Y-50749) (Scheffersomyces stipitis, UniProt J9Q9F3); assay: Aerobic xylose uptake kinetics (Lineweaver-Burk), Y-50049-YXI-XUT6; type: cell-based; details: whole cells, 30° C.
T5 construct: whole-cell xylose uptake; S. stipitis CUG codons are read as Leu in this host
T5 sequence (J9Q9F3 1-544): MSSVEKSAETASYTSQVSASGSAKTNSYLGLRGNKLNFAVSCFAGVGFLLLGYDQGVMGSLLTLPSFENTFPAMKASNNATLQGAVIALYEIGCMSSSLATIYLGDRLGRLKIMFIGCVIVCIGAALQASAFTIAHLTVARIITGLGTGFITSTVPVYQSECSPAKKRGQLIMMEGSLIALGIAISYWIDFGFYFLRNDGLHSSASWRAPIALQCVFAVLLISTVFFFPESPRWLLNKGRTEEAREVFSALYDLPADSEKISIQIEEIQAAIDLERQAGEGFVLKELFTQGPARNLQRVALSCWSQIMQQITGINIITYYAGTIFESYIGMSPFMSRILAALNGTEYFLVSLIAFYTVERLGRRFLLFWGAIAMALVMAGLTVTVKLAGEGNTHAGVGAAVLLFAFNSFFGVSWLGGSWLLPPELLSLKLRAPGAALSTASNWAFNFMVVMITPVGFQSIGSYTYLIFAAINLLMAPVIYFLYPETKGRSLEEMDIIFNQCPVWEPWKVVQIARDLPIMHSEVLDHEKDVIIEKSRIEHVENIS
From the text: as §1, §2

[7] = biological target: T6, S. stipitis xylose transporter XUT7, SEQ ID NO: 65, in S. cerevisiae Y-50049-YXI-XUT7 (NRRL Y-50466) (Scheffersomyces stipitis, UniProt J9PER1); assay: Aerobic xylose uptake kinetics (Lineweaver-Burk), Y-50049-YXI-XUT7; type: cell-based; details: whole cells, 30° C.
T6 construct: whole-cell xylose uptake; S. stipitis CUG codons are read as Leu in this host
T6 sequence (J9PER1 1-418): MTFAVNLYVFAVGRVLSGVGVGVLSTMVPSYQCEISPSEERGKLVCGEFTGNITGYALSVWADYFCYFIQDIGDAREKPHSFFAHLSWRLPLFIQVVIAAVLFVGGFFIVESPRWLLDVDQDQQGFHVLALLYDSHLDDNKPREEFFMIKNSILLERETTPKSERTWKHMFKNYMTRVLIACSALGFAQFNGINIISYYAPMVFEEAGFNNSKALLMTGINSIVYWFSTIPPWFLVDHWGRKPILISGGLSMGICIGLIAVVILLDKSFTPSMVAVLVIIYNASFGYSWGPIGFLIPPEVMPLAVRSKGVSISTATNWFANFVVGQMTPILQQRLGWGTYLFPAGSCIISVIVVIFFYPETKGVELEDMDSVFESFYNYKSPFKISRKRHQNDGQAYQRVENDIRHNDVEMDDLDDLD
From the text: as §1, §2

[8] = test system: S. stipitis Y-7124 xylose proton symporters; details: associated with S. stipitis symport, approximate (~); cited from earlier work

OC1OC[C@@H](O)[C@H](O)[C@H]1O (stereo partly drawn) [xylose, D-xylose]
Vmax [1]: 0.14 g/g/h | Vmax [2]: 0.28 g/g/h | Vmax [3]: 0.36 g/g/h | Vmax [4]: 0.35 g/g/h | Vmax [5]: 0.88 g/g/h | Vmax [6]: 0.33 g/g/h | Vmax [7]: 0.26 g/g/h | Km [8]: 0.01 to 0.3 g/L
